Reference: US20250283113A1, “COMPOSITIONS AND METHODS FOR INCREASING DELETION EFFICIENCY OF NUCLEIC ACID SEGMENT BY MODULATION OF NHEJ REPAIR PATHWAY” (GenKOre, Inc., priority 2022, published 2025)

Columns and labels:
XRCC4 [1] = assay: Western blot of shRNA-mediated inhibition of NHEJ component gene expression (Example 4); assay type: cell-based, human; settings: AC16 cells, conditions as Example 3, FIG. 7
Procedure: (§1) Cell extracts were prepared by scraping cells with 60 to 80 μl of RIPA Lysis and Extraction Buffer (THERMOFISHER, 89900) containing protease inhibitor cocktail (ROCHE, 11836153001) at 4° C. and kept on ice for 10 minutes. The concentration of the cleared lysate was measured by Bradford assay (BIO-RAD), in which 20 to 65 μg of protein lysate, depending on the target protein, was loaded onto Mini-PROTEAN® TGX™ Precast Protein Gels (BIO-RAD), electrophoresed, and transferred to PVDF membranes using the Trans-Blot Turbo Transfer System (BIO-RAD). The membrane was incubated at room temperature for 1 hour in a blocking solution containing 5% non-fat dry milk in TBS-T and then incubated at 4° C. overnight with primary antibodies in TBS-T. After incubation with primary antibodies, the membrane was washed four times with TBS-T and then incubated at room temperature for 1 hour in a blocking solution containing anti-rabbit or anti-mouse immunoglobulin conjugated with HRP. The membrane was additionally washed four times with TBS-T and specific protein complexes were visualized with ECL prime (CYTIVA). Antibodies used were against KU70 (CST, 4588S), DNA ligase IV (CST, 146495), XLF (CST, 2854S), Artemis (CST, 13381), GAPDH (CST, 2118L), and XRCC4 (THERMO, MA5-24383).
(§2) shRNA-mediated inhibition of gene expression was analyzed by Western blot analysis. The experimental conditions were the same as in Example 3. […] As a result, the Western blot results were consistent with the qRT-PCR results.

XRCC4 [2] = assay: qRT-PCR of shRNA-mediated inhibition of NHEJ component gene expression (Example 3); assay type: cell-based, human; settings: AC16 cells, 5 μg shRNA plasmid, 3 days after transfection, FIG. 6
Procedure: (§3) Purification of total RNA was performed, and reverse transcription of total 1 μg RNA was performed with Superscript IV reverse transcriptase (INVITROGEN) using random hexamers. For real-time PCR, 1/20 of the RT product was amplified with the KAPA SYBR FAST qPCR kit (KAPA BIOSYSTEM, Wilmington, MA, USA) using the real-time cycler Quantstudio (THERMO FISHER SCIENTIFIC). The relative amount of mRNA transcripts was measured by the […]. GAPDH and 18s rRNA were used as endogenous controls.
(§4) 5 μg of plasmid vector encoding shRNA was prepared using All-in-one vector (Biofact), transfected into AC16 cells, and harvested 3 days after transfection. Then, mRNA expression of each NHEJ component gene was measured by qRT-PCR. […] The sequences of sense strands of the shRNAs used are described in Table 9.

Dclre1c [3] = assay: qRT-PCR of murine Dclre1c mRNA after shRNA treatment in Hepa-1c1c7 cells (Example 11); assay type: cell-based, mouse; settings: shRNA under U6 promoter, FIG. 14
Procedure: as §3
shRNAs for the Dclre1c gene encoding mouse Artemis protein were selected in Hepa-1c1c7 cells. The shRNAs, which are expressed under the U6 promoter, were generated, and qRT-PCR was performed to measure of the Dclre1c mRNA levels. […] The thus selected shRNAs can be used for in vivo studies using mouse models (for example, DMD mouse model with endogenous murine Dclre1c gene).

DCLRE1C [4] = assay: DCLRE1C mRNA level by qPCR in HEK293T cells (Example 7.1); assay type: cell-based, human; settings: 3 days, compared among shDCLRE1C-2, -3, -5, FIG. 10B
Procedure: as §3
(§5) The efficiency of large-scale deletion was analyzed by qPCR 3 days after treatment of HEK293T cells with the selected shRNA (shDCLRE1C-2, -3, or -5)+UnCas12f1 and a pair of gRNA (F142/R52), and the results are shown in FIG. 10A.

Dystrophin Exon 51, E51 [5] = assay: Whole genome sequencing (WGS) analysis of E51 deletion efficiency (Example 8); assay type: cell-based, human; settings: HEK293T cells, UnCas12f1 + gRNA pair F142/R52, 5 days after transfection, shRNA in two copies (shDC-3×2), FIG. 11
Procedure: HEK293T cells were transfected with UnCas12f1, a pair of gRNA (F142/R52), and shRNA, and then harvested 5 days after transfection. Genomic DNA was purified using a gDNA prep kit (Maxwell® RSC Cultured Cells DNA, PROMEGA, AS1620). 400 to 500 ng of genomic DNA was fragmented, and libraries were prepared using the MGIEasy FS DNA Library Prep. Kit (MGI Tech) according to the manufacturer's instructions. The libraries were then subjected to WGS using DNBSEQ-T7 (MGI Tech). Sequence reads were mapped to the human genome reference standard, GRCh38. Large-scale deletion efficiency was analyzed by counting reads mapped to the deleted region between a pair of gRNAs, and counts per million (CPM) was calculated. The percentage of deletion was calculated based on the difference in CPM between the sample and the control.
HEK293T cells were transfected with UnCas12f1, a pair of gRNA (F142/R52), and shRNA, and then harvested 5 days after transfection. gDNA was prepared therefrom for WGS that is performed to verify large-scale deletion efficiency. To compare the degree of deletion between the two gRNAs which is induced at both sides of E51, reads were mapped to the reference standard sequence and counting was performed within the deleted region. The data were presented as CPM (Count Per Million) along with each read count. […]

Dystrophin Exon 51, E51 [6] = assay: Quantification of large-scale deletion of E51 by qPCR in HEK293T cells (Example 7); assay type: cell-based, human; settings: 3 days, shRNA + UnCas12f1 + gRNA pair F142/R52, qPCR, compared among shDCLRE1C-2, -3, -5, FIG. 10A
Procedure: Quantitative real-time PCR was used to quantify genomic DNA. Primer sequences were designed for each of the E51 internal regions where large-scale deletion occurs. For qPCR, 20 ng of gDNA was amplified with the KAPA SYBR FAST qPCR kit (KAPA BIOSYSTEM, Wilmington, MA, USA) using the real-time cycler Quantstudio (THERMO FISHER SCIENTIFIC).
as §5
For shDCLRE1C and shXRCC6 among the shRNAs selected in Example 4, experiments were conducted in the same manner as in Example 7.1 using the two shRNAs alone, in combination, or one shRNA thereof in two copies, to analyze the efficiency of large-scale deletion of E51.

XLF [7] = assay: Western blot of shRNA-mediated inhibition of NHEJ component gene expression (Example 4); assay type: cell-based, human; settings: AC16 cells, conditions as Example 3, FIG. 7
Procedure: as §1, §2

XLF [8] = assay: qRT-PCR of shRNA-mediated inhibition of NHEJ component gene expression (Example 3); assay type: cell-based, human; settings: AC16 cells, 5 μg shRNA plasmid, 3 days after transfection, FIG. 6
Procedure: as §3, §4

DCLRE1C [9] = assay: qRT-PCR of mRNA expression in AC16 cells transfected with candidate shRNAs (Example 12.1); assay type: cell-based, human; settings: 5 ug, 3 days, among the five shDCLRE1C shRNAs, FIG. 17
Procedure: as §3
Candidate shRNAs for six genes known to be involved in the NHEJ repair pathway were transfected into previously prepared AC16 cells at a dose of 5 ug, and incubation was performed for 3 days. Then, the cells were harvested and qRT-PCR was used to measure the mRNA expression levels of the genes. The results are shown in FIG. 15 (ATM1 and XRCC4), FIG. 16 (XLF-1 and XRCC6), and FIG. 17 (LIG4 and DCLRE1C). From the results, the optimal shRNAs were selected. Scrambled indicates the control shRNA.

KU70 = assay: Western blot of shRNA-mediated inhibition of NHEJ component gene expression (Example 4); assay type: cell-based, human; settings: AC16 cells, conditions as Example 3, FIG. 7
Procedure: as §1, §2

XRCC6 = assay: qRT-PCR of shRNA-mediated inhibition of NHEJ component gene expression (Example 3); assay type: cell-based, human; settings: AC16 cells, 5 μg shRNA plasmid, 3 days after transfection, FIG. 6
Procedure: as §3, §4

DNA ligase IV = assay: Western blot of shRNA-mediated inhibition of NHEJ component gene expression (Example 4); assay type: cell-based, human; settings: AC16 cells, conditions as Example 3, FIG. 7
Procedure: as §1, §2

LIG4 = assay: qRT-PCR of shRNA-mediated inhibition of NHEJ component gene expression (Example 3); assay type: cell-based, human; settings: AC16 cells, 5 μg shRNA plasmid, 3 days after transfection, FIG. 6
Procedure: as §3, §4

ATM1 [10] = assay: Western blot of shRNA-mediated inhibition of NHEJ component gene expression (Example 4); assay type: cell-based, human; settings: AC16 cells, conditions as Example 3, FIG. 7
ATM1 [11] = assay: qRT-PCR of shRNA-mediated inhibition of NHEJ component gene expression (Example 3); assay type: cell-based, human; settings: AC16 cells, 5 μg shRNA plasmid, 3 days after transfection, FIG. 6
Procedure: as §3, §4

Dystrophin Exon 51, E51 [12] = assay: E51 deletion by UnCas12f1 with shRNA, agarose gel of PCR-amplified E51 region and band intensity analysis (Examples 5, 6); assay type: cell-based, human; settings: HEK 293T cells, Image J analysis of FIG. 8, comparison between shRNAs, FIG. 9
Procedure: A pair of guide RNAs for the targets F142 and R52 as shown in Table 14 was used to induce E51 deletion. In order to accurately find the optimal shRNA for a large-scale deletion strategy, comparison of the deletion efficiency altered by the selected shRNAs was conducted in HEK 293T cells. The E51 deletion efficiency was measured on an agarose gel in which the PCR-amplified E51 region was decomposed. From the results, it can be seen that treatment with shRNA increases the E51 deletion efficiency caused by UnCas12f1 .
To compare the large-scale deletion efficiency between various treatments with shRNA, intensity analysis was conducted on the deletion band (Del) and the non-deletion band (WT) in FIG. 8, and the relative values were calculated using Image J software.

Artemis = assay: Western blot of shRNA-mediated inhibition of NHEJ component gene expression (Example 4); assay type: cell-based, human; settings: AC16 cells, conditions as Example 3, FIG. 7
Procedure: as §1, §2

DCLRE1C [13] = assay: qRT-PCR of shRNA-mediated inhibition of NHEJ component gene expression (Example 3); assay type: cell-based, human; settings: AC16 cells, 5 μg shRNA plasmid, 3 days after transfection, FIG. 6
Procedure: as §3, §4

## GAAUCCACCUUUGUUUCUGA (sense GAAUCCACCUUGUUUCUGA; part of shRNA hairpin, further chemistry not given here) [XRCC4-3]
XRCC4 [1]
  inhibition of XRCC4 expression by Western blot: effectively reduced expression of the target genes
XRCC4 [2]
  mRNA expression of NHEJ component gene XRCC4: most effective

## GAGCUGGGAGUUCAGGUUCA (listed as RNA, chemistry not given here) [shDclre1c-12]
Dclre1c [3]
  Dclre1c mRNA level: greatest decrease

## GCACCGCAAGCCUUCUAUA (listed as RNA, chemistry not given here) [shDclre1c-3]
DCLRE1C [4]
  DCLRE1C mRNA level: most effectively downregulates DCLRE1C expression
Dystrophin Exon 51, E51 [5]
  mapped reads in the deleted region (CPM): decreased
Dystrophin Exon 51, E51 [6]
  deletion level (efficiency of large-scale deletion of E51): highest deletion level

## GCAUGAGUCUGGCAUUACA (listed as RNA, chemistry not given here) [XLF-1]
XLF [7]
  inhibition of XLF expression by Western blot: effectively reduced expression of the target genes
XLF [8]
  mRNA expression of NHEJ component gene XLF: most effective

## GCAGAAUUCUUCCCAGUCAUUCAAGAGAUGACUGGGAAGAAUUCUGC (short hairpin RNA, further chemistry not given here) [shDCLRE1C5]
DCLRE1C [9]
  mRNA expression inhibition efficiency (DCLRE1C): highest mRNA expression inhibition efficiency

## GCAGCAUUGUGCAGAUACA (listed as RNA, chemistry not given here) [XRCC6-1]
KU70
  inhibition of XRCC6 (KU70) expression by Western blot: effectively reduced expression of the target genes
XRCC6
  mRNA expression of NHEJ component gene XRCC6: most effective

## GCAUGAUCCUUCUGUAGGA (listed as RNA, chemistry not given here) [LIG4-5]
DNA ligase IV
  inhibition of LIG4 (DNA ligase IV) expression by Western blot: effectively reduced expression of the target genes
LIG4
  mRNA expression of NHEJ component gene LIG4: most effective

## GGACAAAGCUGACUACAGAUUCAAGAGAUCUGUAGUCAGCUUUGUCC (short hairpin RNA, further chemistry not given here) [shDCLRE1C2]
DCLRE1C [9]
  mRNA expression inhibition efficiency (DCLRE1C): highest mRNA expression inhibition efficiency

## GGAGCUGAUUGUAGCAACA (listed as RNA, chemistry not given here) [ATM-3]
ATM1 [10]
  inhibition of ATM expression by Western blot: effectively reduced expression of the target genes
ATM1 [11]
  mRNA expression of NHEJ component gene ATM: most effective

## GCAGAGCUCUCGUUUCACAUUCAAGAGAUGUGAAACGAGAGCUCUGC (short hairpin RNA, further chemistry not given here) [shDCLRE1C3]
DCLRE1C [9]
  mRNA expression inhibition efficiency (DCLRE1C): highest mRNA expression inhibition efficiency

## GCAGAGCUCUCCUUUCACA (sense GCAGAGCUCUCGUUUCACA; part of shRNA hairpin, further chemistry not given here) [DCLRE1C-3]
Dystrophin Exon 51, E51 [12]
  large-scale deletion efficiency (relative intensity of deletion band vs non-deletion band): most effective
Artemis
  inhibition of DCLRE1C (Artemis) expression by Western blot: effectively reduced expression of the target genes
DCLRE1C [13]
  mRNA expression of NHEJ component gene DCLRE1C: most effective
